# Data taken from patent US6706664B1, “Benzoxazole compounds, process for the preparation thereof and herbicides” (UBE Industries, Ltd., priority 1999, dated 2004).
# What was measured:
# Design in all cases: key: 0: normal development; 1: Less damaged; 2: Slightly damaged; 3: Moderately damaged; 4: Severely damaged; 5: All killed
# livid amaranth [1] = experiment: Foliar spread test for upland field; format: in vivo, Amaranthus lividus; details: foliar spray 500 ppm, 3 weeks, rank vs non-treated
# Excerpt: (§1) (0: normal development, 1: Less damaged, 2: Slightly damaged, 3: Moderately damaged, 4: Severely damaged, 5: All killed).
# (§2) Wagner pots, each having an area of 1/5000 are, were packed with volcanic ash soil and then each seed of corn, soybean, cotton, wheat, solgum, sugar beat, Large crabgrass, barnyardgrass, green foxtail, blackgrass, annual bluegrass, common lambsquartes, livid amaranth, velvetleaf and morning glory was planted, covered with soil and grown in a glass house at an average temperature of […] for about 2 weeks.
# (§3) Each wettable powder of the desired compounds (I) shown in Table 1 prepared in accordance with Example 2 was diluted to 500 ppm with water containing a surfactant (0.5%) and then uniformly sprayed on the above respective plants.
# (§4) After these plants were controlled in a glass house at an average temperature of 25° C. for 3 weeks, the herbicidal effects thereof were investigated.
# (§5) The herbicidal effects were evaluated according to the evaluation method described in the above (1).
# livid amaranth [2] = experiment: Soil treatment test for upland field; format: in vivo, Amaranthus lividus; details: 500 g/ha, glass house 25° C., 3 weeks
# Summary of the method: (§6)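 Soil treatment, 500 g/ha, sprayed onto soil surface after sowing; alluvial Ube soil; 0.05% surfactant in diluent; glasshouse, avg 25° C, 3 wk; visual score 0–5 (5 = all killed).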
# velvetleaf [3] = experiment: Soil treatment test for upland field; format: in vivo, Abutilon theophrasti; details: 500 g/ha, glass house 25° C., 3 weeks
# Summary of the method: as §6
# green foxtail [4] = experiment: Foliar spread test for upland field; format: in vivo, Setaria viridis; details: foliar spray 500 ppm, 3 weeks, rank vs non-treated
# Excerpt: as §1, §2, §3, §4, §5
# blackgrass [5] = experiment: Soil treatment test for upland field; format: in vivo, Alopecurus aegualis; details: 500 g/ha, glass house 25° C., 3 weeks
# Summary of the method: as §6
# velvetleaf [6] = experiment: Foliar spread test for upland field; format: in vivo, Abutilon theophrasti; details: foliar spray 500 ppm, 3 weeks, rank vs non-treated
# Excerpt: as §1, §2, §3, §4, §5
# soybean [7] = experiment: Foliar spread test for upland field; format: in vivo; details: foliar spray 500 ppm, 3 weeks, rank vs non-treated
# Excerpt: as §1, §2, §3, §4, §5
# corn [8] = experiment: Foliar spread test for upland field; format: in vivo; details: foliar spray 500 ppm, 3 weeks, rank vs non-treated
# Excerpt: as §1, §2, §3, §4, §5
# solgum [9] = experiment: Foliar spread test for upland field; format: in vivo; details: foliar spray 500 ppm, 3 weeks, rank vs non-treated
# Excerpt: as §1, §2, §3, §4, §5
# sugar beat [10] = experiment: Foliar spread test for upland field; format: in vivo; details: foliar spray 500 ppm, 3 weeks, rank vs non-treated
# Excerpt: as §1, §2, §3, §4, §5
# wheat [11] = experiment: Foliar spread test for upland field; format: in vivo; details: foliar spray 500 ppm, 3 weeks, rank vs non-treated
# Excerpt: as §1, §2, §3, §4, §5
# soybean [12] = experiment: Soil treatment test for upland field; format: in vivo; details: 500 g/ha, glass house 25° C., 3 weeks
# Summary of the method: as §6
# corn [13] = experiment: Soil treatment test for upland field; format: in vivo; details: 500 g/ha, glass house 25° C., 3 weeks
# Summary of the method: as §6
# solgum [14] = experiment: Soil treatment test for upland field; format: in vivo; details: 500 g/ha, glass house 25° C., 3 weeks
# Summary of the method: as §6
# sugar beat [15] = experiment: Soil treatment test for upland field; format: in vivo; details: 500 g/ha, glass house 25° C., 3 weeks
# Summary of the method: as §6
# cotton [16] = experiment: Soil treatment test for upland field; format: in vivo; details: 500 g/ha, glass house 25° C., 3 weeks
# Summary of the method: as §6
# wheat [17] = experiment: Soil treatment test for upland field; format: in vivo; details: 500 g/ha, glass house 25° C., 3 weeks
# Summary of the method: as §6
# Large crabgrass [18] = experiment: Soil treatment test for upland field; format: in vivo, Digitaria adscendens; details: 500 g/ha, glass house 25° C., 3 weeks
# Summary of the method: as §6
# green foxtail [19] = experiment: Soil treatment test for upland field; format: in vivo, Setaria viridis; details: 500 g/ha, glass house 25° C., 3 weeks
# Summary of the method: as §6
# common lambsquartes [20] = experiment: Soil treatment test for upland field; format: in vivo, Chenopodium album; details: 500 g/ha, glass house 25° C., 3 weeks
# Summary of the method: as §6
# annual bluegrass [21] = experiment: Soil treatment test for upland field; format: in vivo, Poa annua; details: 500 g/ha, glass house 25° C., 3 weeks
# Summary of the method: as §6
# common lambsquartes [22] = experiment: Foliar spread test for upland field; format: in vivo, Chenopodium album; details: foliar spray 500 ppm, 3 weeks, rank vs non-treated
# Excerpt: as §1, §2, §3, §4, §5
# barnyardgrass [23] = experiment: Soil treatment test for upland field; format: in vivo, Echinochloa crusgalli; details: 500 g/ha, glass house 25° C., 3 weeks
# Summary of the method: as §6
# morning glory = experiment: Foliar spread test for upland field; format: in vivo, Ipomoea spps.; details: foliar spray 500 ppm, 3 weeks, rank vs non-treated
# Excerpt: as §1, §2, §3, §4, §5
# young rice plant = experiment: Herbicidal test for paddy field; format: in vivo; details: paddy field pot, 500 g/ha dropwise at 1.5 leaf stage of barnyardgrass, 3 weeks, rank vs non-treated
# Method: (§7) Wagner pots, each having an area of 1/5000 are, were packed with Ube soil (alluvial soil) and planted with seeds or tubers of young rice plant, barnyardgrass, bulrush, flat sedge and monochoria. Then, the pots were filled with water to a depth of 3 cm.
# (§8) Each wettable powder of the desired compounds (I) shown in Table 1 prepared in accordance with Example 2 was diluted with water containing a surfactant (0.05%) and subjected to dropwise addition treatment by using pipet so that an effective concentration of the compound (I) in each herbicide became 500 g/ha at 1.5 leaf stage of barnyardgrass.
# (§9) These plants were controlled in a glass house at an average temperature of 25° C. for 3 weeks, and then herbicidal effects thereof were investigated.
# (§10) The herbicidal effects are evaluated according to the following 6 ranks as compared with non-treated district.
# as §1
# bulrush = experiment: Herbicidal test for paddy field; format: in vivo, Scrips juncoides; details: paddy field pot, 500 g/ha dropwise at 1.5 leaf stage of barnyardgrass, 3 weeks, rank vs non-treated
# Method: as §7, §8, §9, §10, §1
# cotton [24] = experiment: Foliar spread test for upland field; format: in vivo; details: foliar spray 500 ppm, 3 weeks, rank vs non-treated
# Excerpt: as §1, §2, §3, §4, §5
# monochoria = experiment: Herbicidal test for paddy field; format: in vivo, Monochoria vaginalis; details: paddy field pot, 500 g/ha dropwise at 1.5 leaf stage of barnyardgrass, 3 weeks, rank vs non-treated
# Method: as §7, §8, §9, §10, §1
# barnyardgrass [25] = experiment: Herbicidal test for paddy field; format: in vivo, Echinochloa crusgalli; details: paddy field pot, 500 g/ha dropwise at 1.5 leaf stage of barnyardgrass, 3 weeks, rank vs non-treated
# Method: as §7, §8, §9, §10, §1
# Large crabgrass [26] = experiment: Foliar spread test for upland field; format: in vivo, Digitaria adscendens; details: foliar spray 500 ppm, 3 weeks, rank vs non-treated
# Excerpt: as §1, §2, §3, §4, §5
# annual bluegrass [27] = experiment: Foliar spread test for upland field; format: in vivo, Poa annua; details: foliar spray 500 ppm, 3 weeks, rank vs non-treated
# Excerpt: as §1, §2, §3, §4, §5
# blackgrass [28] = experiment: Foliar spread test for upland field; format: in vivo, Alopecurus aegualis; details: foliar spray 500 ppm, 3 weeks, rank vs non-treated
# Excerpt: as §1, §2, §3, §4, §5
Structure (SMILES),Effects Livid amaranth (livid amaranth [1]),Effects Livid amaranth (livid amaranth [2]),Effects Velvetleaf (velvetleaf [3]),Effects Green foxtail (green foxtail [4]),Effects Velvetleaf (velvetleaf [6]),Effects Corn (corn [8]),Effects Solgum (solgum [9]),Effects Sugar beat (sugar beat [10]),Effects Wheat (wheat [11]),Effects Soybean (soybean [12]),Effects Corn (corn [13]),Effects Solgum (solgum [14]),Effects Sugar beat (sugar beat [15]),Effects Cotton (cotton [16]),Effects Wheat (wheat [17]),Effects Large crabgrass (Large crabgrass [18]),Effects Green foxtail (green foxtail [19]),Effects Common lambsquarters (common lambsquartes [20]),Effects Annual bluegrass (annual bluegrass [21]),Effects Common lambsquarters (common lambsquartes [22]),also measured
CCCC(Oc1ccc(F)c(C(F)(F)F)c1)c1nc2cc(C#N)c(C#N)cc2o1 (stereo not drawn) [Compound 318],5,5,5,5,2,1,1,5,1,0,0,0,5,0,0,2,4,5,4,3,Effects Blackgrass (blackgrass [5]): 2; Effects Soybean (soybean [7]): 2
CCCC(Oc1ccc(F)c(C(F)(F)F)c1)c1nc2cc(S(C)(=O)=O)c(C)cc2o1 (stereo not drawn) [Compound 488],5,5,5,,3,1,1,5,1,0,0,0,5,1,0,5,5,4,5,3,Effects Barnyardgrass (barnyardgrass [23]): 2; Effects Soybean (soybean [7]): 2; Effects Morning glory (morning glory): 2
CCC(Oc1cccc(C#N)c1)c1nc2cc(S(C)(=O)=O)c(C)cc2o1 (stereo not drawn) [Compound 491],4,,,2,3,1,1,4,1,,,,,,,,,,,5,Effect Young rice plant (young rice plant): 0; Effect Bulrush (bulrush): 3; Effects Cotton (cotton [24]): 2; Effect Monochoria (monochoria): 5; Effects Morning glory (morning glory): 3
CCC(Oc1ccc(F)c(C(F)(F)F)c1)c1nc2cc(F)c(Cl)cc2o1 (stereo not drawn) [Compound 493],5,5,5,5,2,2,1,5,1,2,2,2,5,1,2,5,5,4,5,5,Effects Barnyardgrass (barnyardgrass [23]): 4; Effect Barnyardgrass (barnyardgrass [25]): 5; Effects Large crabgrass (Large crabgrass [26]): 2; Effects Blackgrass (blackgrass [5]): 4; Effects Cotton (cotton [24]): 2; Effect Monochoria (monochoria): 5
CCC(Oc1cccc(C(F)(F)F)c1)c1nc2cc(F)c(Cl)cc2o1 (stereo not drawn) [Compound 496],5,5,5,4,3,2,2,5,2,0,0,1,5,1,1,5,5,5,5,5,Effects Barnyardgrass (barnyardgrass [23]): 3; Effects Large crabgrass (Large crabgrass [26]): 3; Effects Blackgrass (blackgrass [5]): 5; Effects Annual bluegrass (annual bluegrass [27]): 2; Effects Blackgrass (blackgrass [28]): 3
